Source: ChEMBL document CHEMBL5212743, “Selectivity Literature for EUbOPEN Chemogenomics Library wave 3” (2023)

Legend:
[1] = target: T1, Serine/threonine-protein kinase 16 (Homo sapiens, UniProt O75716); test: Selectivity interaction (KinomeScan (DiscoverX)) EUB0000724a STK16; details: at 1 µM
[2] = target: T2, Mitogen-activated protein kinase 15 (Homo sapiens) (UniProt Q8TD08); test: Selectivity interaction (KinomeScan (DiscoverX)) EUB0000724a MAPK15; details: at 1 µM
T2 sequence (whole entry): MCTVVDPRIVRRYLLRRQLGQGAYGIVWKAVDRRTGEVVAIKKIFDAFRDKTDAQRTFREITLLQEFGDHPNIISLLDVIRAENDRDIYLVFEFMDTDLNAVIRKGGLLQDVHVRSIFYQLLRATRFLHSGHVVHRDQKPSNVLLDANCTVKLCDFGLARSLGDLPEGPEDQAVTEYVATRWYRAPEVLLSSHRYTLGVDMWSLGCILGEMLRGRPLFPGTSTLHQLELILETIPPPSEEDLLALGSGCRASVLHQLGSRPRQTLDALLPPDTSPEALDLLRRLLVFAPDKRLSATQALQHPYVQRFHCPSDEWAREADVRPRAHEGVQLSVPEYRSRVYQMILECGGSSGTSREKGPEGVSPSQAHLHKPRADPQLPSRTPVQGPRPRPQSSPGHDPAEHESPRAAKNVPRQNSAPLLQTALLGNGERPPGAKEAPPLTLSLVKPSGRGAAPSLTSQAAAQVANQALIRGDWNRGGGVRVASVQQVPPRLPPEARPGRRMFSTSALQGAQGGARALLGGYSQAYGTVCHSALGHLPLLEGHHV

[3] = target: T3, Phosphatidylinositol 5-phosphate 4-kinase type-2 beta (Homo sapiens) (UniProt P78356); test: Selectivity interaction (KinomeScan (DiscoverX)) EUB0000724a PIP4K2B; details: at 1 µM
T3 sequence (whole entry): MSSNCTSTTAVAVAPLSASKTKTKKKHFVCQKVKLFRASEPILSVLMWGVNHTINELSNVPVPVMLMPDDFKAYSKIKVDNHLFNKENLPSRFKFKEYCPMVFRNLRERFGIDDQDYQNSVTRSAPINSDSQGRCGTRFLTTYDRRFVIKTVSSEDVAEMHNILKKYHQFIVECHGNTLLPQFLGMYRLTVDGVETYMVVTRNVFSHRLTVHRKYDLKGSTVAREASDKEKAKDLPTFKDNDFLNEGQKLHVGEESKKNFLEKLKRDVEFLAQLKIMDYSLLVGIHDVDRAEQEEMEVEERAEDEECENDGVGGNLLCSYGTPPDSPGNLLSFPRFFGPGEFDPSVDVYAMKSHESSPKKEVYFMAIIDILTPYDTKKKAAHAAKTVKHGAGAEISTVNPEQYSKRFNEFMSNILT

[4] = target: T4, Homeodomain-interacting protein kinase 1 (Homo sapiens, UniProt Q86Z02); test: Selectivity interaction (NanoBRET assay (HEK293T cells)) EUB0000724a HIPK1
Target sequence in this assay (Q86Z02 whole entry): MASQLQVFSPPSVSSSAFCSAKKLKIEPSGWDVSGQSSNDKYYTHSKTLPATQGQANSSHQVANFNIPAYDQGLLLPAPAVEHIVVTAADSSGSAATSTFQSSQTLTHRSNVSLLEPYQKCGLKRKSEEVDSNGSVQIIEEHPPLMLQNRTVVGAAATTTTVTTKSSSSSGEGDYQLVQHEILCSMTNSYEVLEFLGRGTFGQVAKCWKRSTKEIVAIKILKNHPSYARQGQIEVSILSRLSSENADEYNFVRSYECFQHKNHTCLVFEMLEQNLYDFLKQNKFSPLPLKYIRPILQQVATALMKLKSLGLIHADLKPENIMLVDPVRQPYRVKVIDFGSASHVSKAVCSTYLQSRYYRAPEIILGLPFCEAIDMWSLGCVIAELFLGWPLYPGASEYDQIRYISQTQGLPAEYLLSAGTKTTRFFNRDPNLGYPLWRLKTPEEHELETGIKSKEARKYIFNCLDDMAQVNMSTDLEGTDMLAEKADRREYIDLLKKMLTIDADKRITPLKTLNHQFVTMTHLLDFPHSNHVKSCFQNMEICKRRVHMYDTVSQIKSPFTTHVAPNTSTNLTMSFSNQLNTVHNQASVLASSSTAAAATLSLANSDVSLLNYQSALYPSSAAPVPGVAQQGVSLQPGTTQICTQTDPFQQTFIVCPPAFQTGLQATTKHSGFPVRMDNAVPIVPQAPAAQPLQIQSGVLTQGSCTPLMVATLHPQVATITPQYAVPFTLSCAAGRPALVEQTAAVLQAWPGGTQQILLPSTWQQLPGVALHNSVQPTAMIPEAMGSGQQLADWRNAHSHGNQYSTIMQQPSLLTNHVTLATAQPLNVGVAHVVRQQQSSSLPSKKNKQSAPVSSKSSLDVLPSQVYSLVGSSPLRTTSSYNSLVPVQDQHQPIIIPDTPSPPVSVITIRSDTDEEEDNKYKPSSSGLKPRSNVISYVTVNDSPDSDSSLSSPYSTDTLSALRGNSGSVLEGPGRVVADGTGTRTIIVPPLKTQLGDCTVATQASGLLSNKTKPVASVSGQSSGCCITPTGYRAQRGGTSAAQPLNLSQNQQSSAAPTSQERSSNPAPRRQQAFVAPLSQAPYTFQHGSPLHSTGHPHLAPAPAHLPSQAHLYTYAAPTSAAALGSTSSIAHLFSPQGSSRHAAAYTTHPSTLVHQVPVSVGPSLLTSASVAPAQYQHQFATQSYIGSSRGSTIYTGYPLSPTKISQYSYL

[5] = target: T5, Homeodomain-interacting protein kinase 2 (Homo sapiens, UniProt Q9H2X6); test: Selectivity interaction (NanoBRET assay (HEK293T cells)) EUB0000724a HIPK2
[6] = target: T1, Serine/threonine-protein kinase 16; test: Selectivity interaction (NanoBRET assay (HEK293T cells)) EUB0000724a STK16
[7] = target: T4, Homeodomain-interacting protein kinase 1; test: Selectivity interaction (KinomeScan (DiscoverX)) EUB0000724a HIPK1; details: at 1 µM
Target sequence in this assay (Q86Z02 whole entry, looked up): as the sequence (Q86Z02 whole entry) above

[8] = target: T5, Homeodomain-interacting protein kinase 2; test: Selectivity interaction (KinomeScan (DiscoverX)) EUB0000724a HIPK2; details: at 1 µM
[9] = target: Serine/threonine-protein kinase Nek7 (Homo sapiens, UniProt Q8TDX7); test: Selectivity interaction (KinomeScan (DiscoverX)) EUB0000724a NEK7; details: at 1 µM
[10] = target: T6, Alpha-2C adrenergic receptor (Homo sapiens, UniProt P18825); test: Selectivity interaction (GPCR panel (PDSP screen)) EUB0000705a ADRA2C
T6 sequence (P18825 whole entry): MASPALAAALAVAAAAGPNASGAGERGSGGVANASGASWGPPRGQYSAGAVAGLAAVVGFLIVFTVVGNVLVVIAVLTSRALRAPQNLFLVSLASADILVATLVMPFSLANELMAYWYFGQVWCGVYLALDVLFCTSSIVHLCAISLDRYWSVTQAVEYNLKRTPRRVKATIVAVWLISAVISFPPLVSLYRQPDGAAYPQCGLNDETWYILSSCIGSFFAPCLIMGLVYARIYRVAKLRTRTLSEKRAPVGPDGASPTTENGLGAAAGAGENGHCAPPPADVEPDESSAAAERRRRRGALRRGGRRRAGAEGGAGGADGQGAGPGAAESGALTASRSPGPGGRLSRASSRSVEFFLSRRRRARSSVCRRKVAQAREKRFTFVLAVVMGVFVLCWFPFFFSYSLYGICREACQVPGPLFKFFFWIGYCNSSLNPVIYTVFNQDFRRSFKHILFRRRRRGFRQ

Mu-type opioid receptor = Mu-type opioid receptor (Homo sapiens, UniProt P35372); test: Selectivity interaction (GPCR panel (PDSP screen)) EUB0000705a OPRM1
[11] = target: T7, Leucine-rich repeat serine/threonine-protein kinase 2 (Homo sapiens, UniProt Q5S007); test: Selectivity interaction (KinomeScan (DiscoverX)) EUB0000705a LRRK2; details: at 1 µM
[12] = target: Beta-3 adrenergic receptor (Homo sapiens, UniProt P13945); test: Selectivity interaction (GPCR panel (PDSP screen)) EUB0000705a ADRB3
[13] = target: T8, Alpha-1D adrenergic receptor (Homo sapiens, UniProt P25100); test: Selectivity interaction (GPCR panel (PDSP screen)) EUB0000705a ADRA1D
T8 sequence (P25100 whole entry): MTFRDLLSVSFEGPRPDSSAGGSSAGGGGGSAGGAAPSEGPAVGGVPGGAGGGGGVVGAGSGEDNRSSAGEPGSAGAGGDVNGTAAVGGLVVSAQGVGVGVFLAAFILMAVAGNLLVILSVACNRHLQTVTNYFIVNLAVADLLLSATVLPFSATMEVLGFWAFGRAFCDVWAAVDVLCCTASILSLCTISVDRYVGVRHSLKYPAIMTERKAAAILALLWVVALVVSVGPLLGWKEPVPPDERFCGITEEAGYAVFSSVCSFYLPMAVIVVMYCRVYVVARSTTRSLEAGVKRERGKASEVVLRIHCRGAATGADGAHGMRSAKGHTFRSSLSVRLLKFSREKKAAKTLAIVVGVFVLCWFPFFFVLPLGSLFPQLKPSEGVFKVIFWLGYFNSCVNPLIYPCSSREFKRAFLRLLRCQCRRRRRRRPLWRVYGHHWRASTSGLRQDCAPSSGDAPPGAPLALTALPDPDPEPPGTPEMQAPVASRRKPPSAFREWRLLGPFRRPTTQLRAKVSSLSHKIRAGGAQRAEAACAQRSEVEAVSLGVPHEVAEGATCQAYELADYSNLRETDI

[14] = target: T9, Alpha-1A adrenergic receptor (Homo sapiens, UniProt P35348); test: Selectivity interaction (GPCR panel (PDSP screen)) EUB0000705a ADRA1A
T9 sequence (P35348 whole entry): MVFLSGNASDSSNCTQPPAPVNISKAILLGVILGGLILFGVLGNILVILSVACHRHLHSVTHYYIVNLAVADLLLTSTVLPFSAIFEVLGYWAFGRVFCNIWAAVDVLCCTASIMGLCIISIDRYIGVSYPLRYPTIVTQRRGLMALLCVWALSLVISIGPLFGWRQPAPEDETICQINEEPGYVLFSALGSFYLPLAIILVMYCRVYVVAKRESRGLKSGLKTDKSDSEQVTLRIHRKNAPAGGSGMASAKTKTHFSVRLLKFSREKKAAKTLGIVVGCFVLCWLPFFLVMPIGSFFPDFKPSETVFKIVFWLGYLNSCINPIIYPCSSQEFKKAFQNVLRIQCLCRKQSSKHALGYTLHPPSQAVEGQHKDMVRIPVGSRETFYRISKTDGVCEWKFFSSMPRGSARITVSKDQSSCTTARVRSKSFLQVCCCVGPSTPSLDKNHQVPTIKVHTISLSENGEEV

[15] = target: 5-hydroxytryptamine receptor 1A (Homo sapiens, UniProt P08908); test: Selectivity interaction (GPCR panel (PDSP screen)) EUB0000705a HTR1A
[16] = target: T7, Leucine-rich repeat serine/threonine-protein kinase 2; test: Selectivity interaction (NanoBRET assay (HEK293T cells)) EUB0000705a LRRK2

T1 sequence (O75716 whole entry): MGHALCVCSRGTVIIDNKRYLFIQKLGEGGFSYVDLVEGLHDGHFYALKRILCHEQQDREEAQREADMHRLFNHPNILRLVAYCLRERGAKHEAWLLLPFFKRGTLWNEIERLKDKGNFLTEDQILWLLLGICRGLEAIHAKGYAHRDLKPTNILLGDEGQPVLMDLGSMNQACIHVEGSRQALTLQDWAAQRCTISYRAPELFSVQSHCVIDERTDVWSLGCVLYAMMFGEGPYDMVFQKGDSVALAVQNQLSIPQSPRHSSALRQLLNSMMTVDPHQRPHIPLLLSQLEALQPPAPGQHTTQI
T7 sequence (Q5S007 whole entry): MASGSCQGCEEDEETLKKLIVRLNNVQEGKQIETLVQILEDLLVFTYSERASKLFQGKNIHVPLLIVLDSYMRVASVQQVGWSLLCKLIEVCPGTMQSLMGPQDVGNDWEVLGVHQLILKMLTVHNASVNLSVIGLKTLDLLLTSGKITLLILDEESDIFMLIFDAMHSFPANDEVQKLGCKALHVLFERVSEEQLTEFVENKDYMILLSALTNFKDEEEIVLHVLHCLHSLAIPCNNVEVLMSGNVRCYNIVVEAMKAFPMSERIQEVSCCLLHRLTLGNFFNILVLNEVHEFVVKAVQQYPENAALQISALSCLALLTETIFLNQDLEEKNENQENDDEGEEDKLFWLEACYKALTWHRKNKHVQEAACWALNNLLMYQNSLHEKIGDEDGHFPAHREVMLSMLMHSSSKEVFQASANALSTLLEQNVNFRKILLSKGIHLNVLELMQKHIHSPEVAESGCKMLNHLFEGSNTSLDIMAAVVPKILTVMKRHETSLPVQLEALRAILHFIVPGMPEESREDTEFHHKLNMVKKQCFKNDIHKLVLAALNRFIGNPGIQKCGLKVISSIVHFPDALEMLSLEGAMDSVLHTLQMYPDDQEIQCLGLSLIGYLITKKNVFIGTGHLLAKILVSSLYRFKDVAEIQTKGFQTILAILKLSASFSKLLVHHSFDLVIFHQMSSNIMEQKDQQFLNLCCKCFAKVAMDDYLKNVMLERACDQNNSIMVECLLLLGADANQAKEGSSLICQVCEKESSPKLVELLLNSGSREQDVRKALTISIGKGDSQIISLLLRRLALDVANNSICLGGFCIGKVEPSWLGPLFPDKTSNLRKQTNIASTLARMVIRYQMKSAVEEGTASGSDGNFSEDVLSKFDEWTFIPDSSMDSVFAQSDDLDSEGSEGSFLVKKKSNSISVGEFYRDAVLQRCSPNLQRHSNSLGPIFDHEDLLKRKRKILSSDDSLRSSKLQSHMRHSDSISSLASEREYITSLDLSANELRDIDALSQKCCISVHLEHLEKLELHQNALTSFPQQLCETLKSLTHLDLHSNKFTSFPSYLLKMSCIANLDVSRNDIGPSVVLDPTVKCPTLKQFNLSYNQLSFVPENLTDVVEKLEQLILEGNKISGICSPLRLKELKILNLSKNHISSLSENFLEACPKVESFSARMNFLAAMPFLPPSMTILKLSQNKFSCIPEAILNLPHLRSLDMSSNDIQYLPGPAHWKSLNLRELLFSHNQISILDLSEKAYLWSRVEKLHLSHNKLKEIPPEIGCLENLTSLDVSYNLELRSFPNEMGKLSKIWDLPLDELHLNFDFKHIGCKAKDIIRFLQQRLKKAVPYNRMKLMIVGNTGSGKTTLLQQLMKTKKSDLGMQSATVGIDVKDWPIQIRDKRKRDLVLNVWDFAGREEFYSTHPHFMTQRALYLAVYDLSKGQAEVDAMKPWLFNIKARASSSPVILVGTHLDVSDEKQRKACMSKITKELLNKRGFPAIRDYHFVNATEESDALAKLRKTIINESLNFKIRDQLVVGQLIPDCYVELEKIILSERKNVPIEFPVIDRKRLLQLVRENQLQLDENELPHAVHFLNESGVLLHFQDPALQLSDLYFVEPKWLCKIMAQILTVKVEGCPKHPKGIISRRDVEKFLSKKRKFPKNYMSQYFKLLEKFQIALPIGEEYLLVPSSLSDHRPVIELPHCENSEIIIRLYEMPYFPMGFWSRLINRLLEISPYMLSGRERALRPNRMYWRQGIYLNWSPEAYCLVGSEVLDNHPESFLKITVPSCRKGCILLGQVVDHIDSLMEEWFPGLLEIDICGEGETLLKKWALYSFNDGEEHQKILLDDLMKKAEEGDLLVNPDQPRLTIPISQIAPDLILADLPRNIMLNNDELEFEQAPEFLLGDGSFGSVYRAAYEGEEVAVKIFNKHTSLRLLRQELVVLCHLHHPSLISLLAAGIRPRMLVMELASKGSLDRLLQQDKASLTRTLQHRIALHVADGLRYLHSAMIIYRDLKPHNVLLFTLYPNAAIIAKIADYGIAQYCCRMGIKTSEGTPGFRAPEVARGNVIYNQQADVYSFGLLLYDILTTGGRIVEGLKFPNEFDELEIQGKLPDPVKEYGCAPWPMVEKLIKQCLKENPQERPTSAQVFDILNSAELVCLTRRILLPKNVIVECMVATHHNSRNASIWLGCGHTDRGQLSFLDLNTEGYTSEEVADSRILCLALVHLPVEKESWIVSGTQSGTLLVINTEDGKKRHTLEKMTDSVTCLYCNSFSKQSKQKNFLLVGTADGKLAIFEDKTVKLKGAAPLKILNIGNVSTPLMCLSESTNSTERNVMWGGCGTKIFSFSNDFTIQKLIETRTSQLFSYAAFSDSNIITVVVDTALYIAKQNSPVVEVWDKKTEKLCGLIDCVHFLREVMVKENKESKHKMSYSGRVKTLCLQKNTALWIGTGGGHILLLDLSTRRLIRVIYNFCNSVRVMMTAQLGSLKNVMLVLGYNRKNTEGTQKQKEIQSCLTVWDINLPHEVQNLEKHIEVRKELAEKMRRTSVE
Chain of Mu-type opioid receptor (P35372 whole entry): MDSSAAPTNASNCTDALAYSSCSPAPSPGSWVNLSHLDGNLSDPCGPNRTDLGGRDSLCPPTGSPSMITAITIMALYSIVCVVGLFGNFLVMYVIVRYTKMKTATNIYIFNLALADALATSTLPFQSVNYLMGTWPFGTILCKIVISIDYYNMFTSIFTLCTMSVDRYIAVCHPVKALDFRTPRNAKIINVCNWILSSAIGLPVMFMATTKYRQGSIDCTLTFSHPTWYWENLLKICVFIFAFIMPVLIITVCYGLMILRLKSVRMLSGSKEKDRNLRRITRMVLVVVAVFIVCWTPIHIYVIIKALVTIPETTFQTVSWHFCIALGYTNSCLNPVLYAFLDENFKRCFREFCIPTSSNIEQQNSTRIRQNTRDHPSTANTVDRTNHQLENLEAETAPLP
Chain of 5-hydroxytryptamine receptor 1A (P08908 whole entry): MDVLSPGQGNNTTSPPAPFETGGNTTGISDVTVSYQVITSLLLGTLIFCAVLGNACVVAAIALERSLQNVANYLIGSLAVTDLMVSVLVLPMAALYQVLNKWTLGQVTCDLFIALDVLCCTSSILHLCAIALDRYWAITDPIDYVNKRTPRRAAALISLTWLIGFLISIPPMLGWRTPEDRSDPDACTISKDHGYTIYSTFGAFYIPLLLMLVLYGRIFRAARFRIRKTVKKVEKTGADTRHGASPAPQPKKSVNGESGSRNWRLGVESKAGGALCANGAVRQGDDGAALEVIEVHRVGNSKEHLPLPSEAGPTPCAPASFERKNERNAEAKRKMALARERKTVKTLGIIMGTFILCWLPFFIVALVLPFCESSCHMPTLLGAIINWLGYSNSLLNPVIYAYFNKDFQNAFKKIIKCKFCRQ

| Structure (SMILES) | % of control [1] | % of control [2] | % of control [3] | IC50 [4] | IC50 [5] | IC50 [6] | % of control [7] | % of control [8] | % of control [9] | Ki [10] | Ki (Mu-type opioid receptor) | % of control [11] | Ki [12] | Ki [13] | Ki [14] | Ki [15] | IC50 [16] |
| --- | --- | --- | --- | --- | --- | --- | --- | --- | --- | --- | --- | --- | --- | --- | --- | --- | --- |
| COc1cc(Nc2nccc(-c3cnn4nc(OC)ccc34)n2)cc(C(F)(F)F)c1 | 53% | 21% | 50% | > 10 µM | > 10 µM | 0.167 µM | 31% | 34% | 40% | – | – | – | – | – | – | – | – |
| CN1CCN(C(=O)C(C)(C)c2ccc(C(=O)Nc3cn4cc(-c5cc(C(C)(C)C)cc(C(C)(C)C)c5)ccc4n3)cc2)CC1 [T3-CLK-N] | – | – | – | – | – | – | – | – | – | > 10 µM | 4.52 µM | > 95% | > 10 µM | > 10 µM | 1.67 µM | 2.18 µM | > 10 µM |
